We go through 28 molecules from patent US20100029620A1, “SUBSTITUTED TRIAZOLINE, TETRAZOLONE AND IMIDAZOLONE DERIVATIVES FOR USE AS A MEDICINE” (JANSSEN PHARMACEUTICA N.V., priority 2004, published 2010).

For assay [1], the target named is T1, human adrenergic-α2A receptor (Homo sapiens, UniProt P08913).
T1 construct: expressed in transfected cells; membrane preparation
T1 sequence (P08913 1-465): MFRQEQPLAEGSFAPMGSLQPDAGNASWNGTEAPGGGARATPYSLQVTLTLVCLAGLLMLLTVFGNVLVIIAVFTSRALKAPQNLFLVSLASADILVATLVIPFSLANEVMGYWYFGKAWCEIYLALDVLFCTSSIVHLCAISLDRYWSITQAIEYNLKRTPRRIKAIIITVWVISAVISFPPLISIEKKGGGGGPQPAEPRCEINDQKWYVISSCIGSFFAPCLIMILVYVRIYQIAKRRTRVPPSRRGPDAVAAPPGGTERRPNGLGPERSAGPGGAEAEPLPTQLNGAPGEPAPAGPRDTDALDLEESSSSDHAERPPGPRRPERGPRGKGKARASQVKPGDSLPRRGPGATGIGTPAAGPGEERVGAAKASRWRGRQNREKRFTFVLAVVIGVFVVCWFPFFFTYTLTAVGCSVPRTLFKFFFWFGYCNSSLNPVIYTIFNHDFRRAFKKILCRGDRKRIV
The assay can be described thus: Radioligand binding experiment for α2A-adrenoceptor ([3H]-raulwolscine competition, CHO cell membranes). The following applies: [3H]raulwolscine 1 nM, membranes of CHO cells transfected with human α2A receptor; read-out: pIC50 α2A (converted). The method, boiled down: (§1)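 CHO cell membranes stably expressing human α2A, α2B or α2C receptor were incubated with 1 nM [3H]-raulwolscine ± test compound, 60 min at 25° C in glycylglycine 25 mM, pH 8.0, then filtered and counted. Nonspecific binding: 1 μM oxymetazoline (α2A, α2B) or 1 μM spiroxatrine (α2C). pIC50 from nonlinear regression of % total binding.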

For assay [2], the target named is T2, human adrenergic-α2B receptor (Homo sapiens, UniProt P18089).
T2 construct: expressed in transfected cells; membrane preparation
T2 sequence (P18089 1-450): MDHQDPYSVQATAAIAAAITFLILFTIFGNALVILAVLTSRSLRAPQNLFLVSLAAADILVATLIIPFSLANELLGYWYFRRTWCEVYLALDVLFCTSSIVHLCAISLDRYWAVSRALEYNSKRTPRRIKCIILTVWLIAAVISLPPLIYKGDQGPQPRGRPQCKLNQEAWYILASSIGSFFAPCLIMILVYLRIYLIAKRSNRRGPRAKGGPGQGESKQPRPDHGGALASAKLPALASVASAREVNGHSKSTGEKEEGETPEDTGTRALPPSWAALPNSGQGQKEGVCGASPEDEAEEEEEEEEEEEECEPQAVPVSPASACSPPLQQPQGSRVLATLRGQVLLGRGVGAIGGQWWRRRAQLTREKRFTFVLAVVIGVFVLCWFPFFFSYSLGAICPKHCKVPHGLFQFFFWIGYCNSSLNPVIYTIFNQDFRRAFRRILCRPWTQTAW
The assay can be described thus: Radioligand binding experiment for α2B-adrenoceptor ([3H]-raulwolscine competition, CHO cell membranes). The note with it: [3H]raulwolscine 1 nM, membranes of CHO cells transfected with human α2B receptor; for IC50: read-out: pIC50 α2B (converted). The method, boiled down: as §1

For assay [3], the target named is T3, human adrenergic-α2C receptor (Homo sapiens, UniProt P18825).
T3 construct: expressed in transfected cells; membrane preparation
T3 sequence (P18825 1-462): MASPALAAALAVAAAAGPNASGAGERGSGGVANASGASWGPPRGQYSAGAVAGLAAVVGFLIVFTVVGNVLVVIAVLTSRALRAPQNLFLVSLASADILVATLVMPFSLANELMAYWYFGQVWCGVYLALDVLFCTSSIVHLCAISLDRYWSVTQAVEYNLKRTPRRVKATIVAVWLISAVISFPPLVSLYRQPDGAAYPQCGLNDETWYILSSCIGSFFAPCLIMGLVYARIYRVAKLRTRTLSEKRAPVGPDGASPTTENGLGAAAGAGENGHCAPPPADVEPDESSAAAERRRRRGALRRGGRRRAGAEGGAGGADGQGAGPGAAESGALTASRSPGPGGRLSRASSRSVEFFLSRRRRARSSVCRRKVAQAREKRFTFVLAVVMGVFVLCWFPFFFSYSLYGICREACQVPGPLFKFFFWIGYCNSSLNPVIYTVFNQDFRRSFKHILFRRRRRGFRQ
In words: Radioligand binding experiment for α2C-adrenoceptor ([3H]-raulwolscine competition, CHO cell membranes). The note with it: [3H]raulwolscine 1 nM, membranes of CHO cells transfected with human α2C receptor; read-out: pIC50 α2C (converted). An outline of the steps: as §1

On to `O=c1n(-c2ccc(N3CCOCC3)cc2)cnn1CC1CCN(CCOc2ccccc2)CC1` [compound 72], for which the IC50 in assay [1] was 158 nM; in assay [2] it was 25.1 nM; in assay [3], 7.94 nM.
`O=c1n(-c2ccc(CN3CCOCC3)cc2)cnn1CC1CCN(CCOc2ccccc2)CC1` [compound 73]: the IC50 in assay [1] was 158 nM; in assay [2] it was 39.8 nM; in assay [3], 1.58 nM.
The corresponding values for `C/C(=C\c1ccccc1)CN1CCC(n2cnn(CCN3CCCCC3)c2=O)CC1` [compound 79] are 398 nM, 631 nM and 31.6 nM.
Regarding `O=C1c2ccccc2C(=O)N1CCCn1ncn(CC2CCN(CCOc3ccccc3)CC2)c1=O` [compound 82], the IC50 is 12.6 nM in assay [1], 15.8 nM in assay [2] and 1 nM in assay [3].
Consider `C/C(=C\c1ccccc1)CN1CCC(n2cnn(CCCN3C(=O)c4ccccc4C3=O)c2=O)CC1` [compound 83], for which the IC50 in assay [1] was 316 nM; in assay [2], 50.1 nM; in assay [3], 5.01 nM.
With `O=C1c2ccccc2C(=O)N1CCCn1cnn(CC2CCN(CCOc3ccccc3)CC2)c1=O` [compound 84], the values for the IC50 in assay [1], in assay [2] and in assay [3] were 25.1 nM, 20 nM and 0.631 nM, respectively.
The corresponding values for `NCc1ccc(Cn2cnn(CCNCCOc3ccccc3)c2=O)cc1` [compound 85] are 126 nM, 126 nM and 6.31 nM.
On to `CN(C)CCNc1ccc(-n2cnn(CCNCCOc3ccccc3)c2=O)cc1` [compound 86], for which the IC50 in assay [1] was 39.8 nM; in assay [2] it was 31.6 nM; in assay [3], 1 nM.
In the case of `CN(C)CCNc1ccc(-n2cnn(CCNCCOc3ccccc3)c2=O)cc1` [compound 87], the figures for the IC50 in assay [1] and in assay [3] were 31.6 nM and 1.26 nM, respectively. Further, the “pIC50 α2B” value in assay [2] is on record as 7.5.
With `O=c1n(-c2ccc(NCCN3CCCC3)cc2)cnn1CCNCCOc1ccccc1` [compound 88], the IC50 in assay [1] is 39.8 nM; in assay [2], 39.8 nM; in assay [3], 2 nM.
On to `O=c1n(-c2ccc(NCc3ccc(F)cc3)cc2)cnn1CCNCCOc1ccccc1` [compound 89], for which the IC50 was 251 nM in assay [1], 126 nM in assay [2] and 2 nM in assay [3].
As to `O=c1n(-c2ccc(CNCCc3ccccc3)cc2)cnn1CCNCCOc1ccccc1` [compound 90], the figures for the IC50 in assay [1], in assay [2] and in assay [3] were 20 nM, 50.1 nM and 0.631 nM, respectively.
In the case of `O=c1n(-c2ccc(CNCc3ccc(F)cc3)cc2)cnn1CCNCCOc1ccccc1` [compound 91], the IC50 in assay [1] was 31.6 nM; in assay [2] it was 79.4 nM; in assay [3], 5.01 nM.
Regarding `O=c1n(-c2ccc(CNCc3ccccc3)cc2)cnn1CCNCCOc1ccccc1` [compound 92], the IC50 is 25.1 nM in assay [1], 200 nM in assay [2] and 5.01 nM in assay [3].
With `O=c1n(-c2ccc(CNCC3CCCO3)cc2)cnn1CCNCCOc1ccccc1` (stereo not drawn) [compound 93], the IC50 is 50.1 nM in assay [1], 126 nM in assay [2] and 1.26 nM in assay [3].
The corresponding values for `CN(Cc1ccccc1)Cc1ccc(-n2cnn(CCNCCOc3ccccc3)c2=O)cc1` [compound 94] are 31.6 nM, 126 nM and 3.16 nM.
Consider `O=c1n(-c2ccc(CNCCN3CCCCC3)cc2)cnn1CCNCCOc1ccccc1` [compound 95], for which the figures for the IC50 in assay [1], in assay [2] and in assay [3] were 15.8 nM, 126 nM and 1.58 nM, respectively.
Regarding `O=c1n(-c2ccc(CNCc3ccccn3)cc2)cnn1CCNCCOc1ccccc1` [compound 96], the IC50 is 39.8 nM in assay [1], 200 nM in assay [2] and 3.16 nM in assay [3].
Turning to `O=c1n(-c2ccc3c(c2)CCNC3)cnn1CCNCCOc1ccccc1` [compound 97], the figures for the IC50 in assay [1], in assay [2] and in assay [3] were 50.1 nM, 251 nM and 2 nM, respectively.
With `O=c1n(-c2ccc3c(c2)CCN(CC2CCCCC2)C3)cnn1CCNCCOc1ccccc1` [compound 98], the results for the IC50 in assay [1], in assay [2] and in assay [3] were 501 nM, 251 nM and 20 nM, respectively.
For the molecule `O=c1n(-c2ccc3c(c2)CCN(Cc2ccc(F)cc2)C3)cnn1CCNCCOc1ccccc1` [compound 99], the figures for the IC50 in assay [1], in assay [2] and in assay [3] were 251 nM, 200 nM and 10 nM, respectively.
With `CC(=O)N1CCc2cc(-n3cnn(CCNCCOc4ccccc4)c3=O)ccc2C1` [compound 100], the IC50 is 631 nM in assay [1], 398 nM in assay [2] and 10 nM in assay [3].
For the molecule `CS(=O)(=O)N1CCc2cc(-n3cnn(CCNCCOc4ccccc4)c3=O)ccc2C1` [compound 101], the IC50 in assay [1] is 631 nM; in assay [2], 251 nM; in assay [3] it was 7.94 nM.
On to `O=c1n(-c2ccc3c(c2)CCN(CCN2CCCC2)C3)cnn1CCNCCOc1ccccc1` [compound 102], for which the IC50 in assay [1] was 79.4 nM; in assay [2] it was 251 nM; in assay [3], 3.16 nM.
The corresponding values for `CC(C)N1CCc2cc(-n3cnn(CCNCCOc4ccccc4)c3=O)ccc2C1` [compound 103] are 501 nM, 794 nM and 25.1 nM.
In the case of `O=c1n(CC2CCN(CCOc3ccccc3)CC2)nnn1-c1ccc(CN2CCOCC2)cc1` [compound 104], the values for the IC50 in assay [1], in assay [2] and in assay [3] were 63.1 nM, 79.4 nM and 5.01 nM, respectively.
The corresponding values for `O=c1n(CCNCCOc2ccccc2)nnn1-c1ccc(CN2CCC(O)CC2)cc1` [compound 107] are 501 nM, 398 nM and 20 nM.
As for `C/C(=C\c1ccccc1)CN1CCC(n2ncn(-c3ccc(CN4C(=O)c5ccccc5C4=O)cc3)c2=O)CC1` [compound 109], the IC50 was 31.6 nM in assay [1], 39.8 nM in assay [2] and 2 nM in assay [3].
